Experimental data taken from patent US9834521B2, “Choline kinase inhibitors” (ARIAD Pharmaceuticals, Inc., priority 2013, dated 2017).

Experiments:
[1] = molecular target: T1, ChoKα protein (Homo sapiens, UniProt P35790); experiment: Binding affinity by surface plasmon resonance (SensiQ Pioneer, FastStep)
T1 construct: made in house
Procedure: KD may be measured using surface plasmon resonance (BIAcore®) technology, see, e.g., Panayotou et al, Mol. Cell. […] ChoKα protein was immobilized by standard amine coupling methods on a COOH5 sensor chip installed in a SensiQ Pioneer system. Sensograms were measured using the FastStep™ screen method with an upper concentration of 500 nM. Kinetics and affinity were obtained from fits using a 1:1 binding model.

[2] = test system: cancer cell lines; experiment: Cellular Growth Inhibition Assay (CyQuant Cell Proliferation Assay Kit); format: cell-based; conditions: 72 h
Procedure: Cellular Growth Inhibition AssayVehicle or compound treated cells were assessed for cell growth after 72 hours of treatment using the CyQuant® Cell Proliferation Assay Kit (Life Technologies, Grand Island, N.Y.). […] Data are shown as mean (±SD) from ≧2 separate experiments.

[3] = molecular target: T2, truncated form of human Choline kinase α1 that includes residues 75-457 (Homo sapiens, UniProt P35790); experiment: Kinase Assay, coupled (ATP regeneration) LDH/PK assay, NADH absorbance; format: biochemical
T2 construct: made in house
T2 sequence (P35790 75-457): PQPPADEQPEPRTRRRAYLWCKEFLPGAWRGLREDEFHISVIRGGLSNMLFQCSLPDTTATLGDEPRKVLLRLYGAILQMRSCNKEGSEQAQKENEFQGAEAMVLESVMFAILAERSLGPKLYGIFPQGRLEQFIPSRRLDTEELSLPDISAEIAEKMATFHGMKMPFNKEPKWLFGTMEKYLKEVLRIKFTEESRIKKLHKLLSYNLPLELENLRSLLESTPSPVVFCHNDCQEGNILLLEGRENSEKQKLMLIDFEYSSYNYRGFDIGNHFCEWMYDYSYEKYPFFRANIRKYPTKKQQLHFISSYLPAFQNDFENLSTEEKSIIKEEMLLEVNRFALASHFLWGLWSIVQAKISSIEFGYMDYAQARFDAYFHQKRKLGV
Procedure: Absorbance of NADH (340 nm) was measured over 30 min using a SpectraMax M5 (Molecular Devices). Initial reaction velocity (ΔA340/Δt) was calculated and plotted as a function of inhibitor concentration in a 2-fold dilution series. IC50 values were obtained by fitting the relative velocities to a dose-response model.

[4] = test system: phosphocholine levels in MDA-MB-468 cells; experiment: Phosphocholine Assay (1H-NMR) in MDA-MB-468 cells; format: cell-based; conditions: Homo sapiens, 24 hours of treatment, read-out: IC50 of pCh
Procedure: (§1) 5×10^6 cells of each line were grown in the presence of increasing concentration of the test compound or vehicle (DMSO) for 24 hours, then counted and viability checked by Trypan Blue Exclusion protocol. 5×10^6 viable cells were washed twice in ice cold D-PBS, then solubilized by vortexing for 30 seconds in 6 mL ice cold 100% methanol. 6 mL of chloroform and 6 mL of water were added and the mixture vortexed again. After centrifugation for 10 minutes @ 5,220 rpms, 10 mL of the aqueous phase is removed and lyophilized. The samples were analyzed by ^1H-NMR to determine phosphocholine levels.
Similarly, dose dependent inhibition of phosphocholine levels in MDA-MB-468 cells by the compound provided in Example 45 was determined by ^1H-NMR analysis after 24 hours of treatment with increasing concentrations consisting of 0.1 μM, 1.0 μM, 10 μM, 20 μM, and 80 μM. By this method, the IC50 of pCh was determined to be 3 μM of the compound provided in Example 45.

[5] = test system: phosphocholine levels in MDA-MB-415 cells; experiment: Phosphocholine Assay (1H-NMR) in MDA-MB-415 cells; format: cell-based; conditions: Homo sapiens, 24 hours of treatment, read-out: IC50 of pCh
Procedure: as §1
Dose dependent inhibition of phosphocholine levels in MDA-MB-415 cells by the compound provided in Example 55 was determined by ^1H-NMR analysis after 24 hours of treatment with increasing concentrations consisting of 0.25 μM, 0.50 μM, 1.0 μM, 2.0 μM, 4.0 μM, 8.0 μM and 16 μM.

T1 sequence (P35790 75-457): as above

Kd [1] [µM] | GI50 [2] [µM] | IC50 [3] [µM] | IC50 [4] [µM] | IC50 [5] [µM] | Structure (SMILES)
< 60 | < 5 | < 0.2 | 3 |  | CN1CCCN(Cc2ccc(-c3ccc(CN4CCCN(C)CC4)cc3)cc2)CC1 [Example 45, 4,4′-bis((4-methyl-1,4-diazepan-1-yl)methyl)-1,1′-biphenyl]
< 0.1 | < 5 | < 0.2 |  | 0.75 | CN1CCCN(Cc2ccc(-c3ccc(CN4CCCN(C)CC4)cc3C#N)c(F)c2)CC1 [Example 55, 2′-fluoro-4,4′-bis((4-methyl-1,4-diazepan-1-yl)methyl)-[1,1′-biphenyl]-2-carbonitrile]
